{"source": "patent US8110365B2", "about": "“Compositions and methods for detecting and treating renal injury and inflammation” (Rhode Island Hospital, priority 2006, dated 2012)", "key": {"[1]": {"test_system": "MCP-1 and RANTES", "experiment": "TNF-α induced chemokine (MCP-1, RANTES) expression in HKC cells", "format": "cell-based, human", "protocol": "In certain embodiments, Enzyme-linked Immunosorbent assay (ELISA) is used to evaluate GSK3b proten level. For example, rat kidneys were homogenized in RIPA [1% Nonidet P-40, 0.1% SDS, 100ug/ml phenylmethysulfonyl fluoride (PMSF), 0.5% sodium deoxycholate, 1 mM sodium orthovanadate, 2 ug/ml aprotin, 2 ug/ml leupeptin, 5 mM EDTA in PBS] buffer. Chemokine levels in homogenates of equal amounts of total protein were measured using specific sandwich enzyme immunometric assay kits for rat. Chemokines in conditioned media from HKC were determined by specific sandwich ELISA kits for human (R&D Systems) according to the manufacturer's instructions. Results were normalized for protein amounts in kidney homogenates, or for cell number in cultures.\nHuman proximal TEC (HKC-8) (courtesy of Dr. L. Racusen of John Hopkins University, Baltimore, Md.) were maintained in Dulbecco's modified Eagle's medium (DMEM)/F12 supplemented with 5% fetal bovine serum (FBS). Cells were plated at approximately 70% confluence in the media containing 5% FBS for 24 h and then underwent serum starvation for another 24 h. Human recombinant HGF and human recombinant TNF-α (R&D systems, Minneapolis, Minn.) were added to the culture with fresh serum-free medium at a final concentration of 20 ng/ml and 2 ng/ml respectively, or otherwise as indicated. Cell viability was assessed by Trypan blue exclusion. At different time points, cells and conditioned media were harvested for further investigation."}, "[2]": {"biological_target": "T1, GSK3b and NFkB p65 (Homo sapiens, UniProt P49841)", "T1 construct": "whole cell lysates were subjected to immunoprecipitation by anti-GSK3b or anti-p65 antibody; endogenous in cells; host or cells: HKC-8", "T1 sequence (P49841 whole entry)": "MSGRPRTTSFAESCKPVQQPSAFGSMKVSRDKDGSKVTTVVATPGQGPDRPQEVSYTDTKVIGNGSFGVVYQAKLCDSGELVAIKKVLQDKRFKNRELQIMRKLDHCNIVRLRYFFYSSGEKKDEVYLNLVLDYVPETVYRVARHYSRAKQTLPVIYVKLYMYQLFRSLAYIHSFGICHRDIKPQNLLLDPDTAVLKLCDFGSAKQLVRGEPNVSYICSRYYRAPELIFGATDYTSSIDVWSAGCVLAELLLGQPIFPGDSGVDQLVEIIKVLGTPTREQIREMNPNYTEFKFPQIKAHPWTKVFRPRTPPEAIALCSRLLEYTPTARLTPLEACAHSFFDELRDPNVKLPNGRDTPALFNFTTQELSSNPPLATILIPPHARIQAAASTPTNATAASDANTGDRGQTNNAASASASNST", "experiment": "Co-immunoprecipitation of GSK3b and NFkB p65 in HKC cells", "format": "cell-based", "protocol": "(§1) Immunoprecipitation was carried out by using an established method as described previously. Briefly, cells were washed with ice cold PBS and then lysed with RIPA buffer. After preclearing with normal IgG, cell lysates with equal amount of total protein (0.5 mg of protein) were incubated overnight at 4° C. with 4 μg specific agarose-conjugated antibodies. The precipitated complexes were collected, washed, and separated on SDS-polyacrylamide gels and blotted with various antibodies as indicated."}, "[3]": {"biological_target": "T2, GSK3b and NFkB p65 (Homo sapiens, UniProt P49841, S9A)", "T2 construct": "endogenous in cells; host or cells: HKC-8", "T2 sequence (P49841 whole entry S9A)": "as the sequence (P49841 whole entry) above, with S9A counted along it", "experiment": "Co-immunoprecipitation of GSK3b and NFkB p65 in HKC cells", "format": "cell-based", "conditions": "HKC cells expressing S9A, TNF-a stimulation", "protocol": "as §1"}, "[4]": {"test_system": "remnant kidney rats", "experiment": "Rat remnant kidney model (5/6 nephrectomy)", "format": "in vivo", "conditions": "for inflammation and injury in remnant kidneys: rats, treatment for 2 wk beginning 2 wk after nephrectomy", "source_text": "We examined the molecular mechanism of HGF's anti-inflammatory actions in a model of CKD. Beginning 2 wk after ⅚^th nephrectomy, rats received exogenous HGF, neutralization of endogenous HGF by daily injection of an anti-HGF antibody, or preimmune IgG for 2 wk. […] There were parallel alterations in endothelial activation and inflammation, marked by de novo E-selectin expression and leukocyte adhesion to renal vascular endothelium. […] Thus, the GSK3b inhibitor HGF has direct anti-inflammatory effects via suppression of NF-KB and endothelial inflammation."}, "[5]": {"test_system": "NF-κB", "experiment": "Gel shift assay of HKC nuclear extract with NF-κB consensus sequence", "format": "cell-based, human", "conditions": "HKC cells, 4 h"}, "[6]": {"test_system": "NFkB p65", "experiment": "ChIP of NFkB p65 at MCP-1 and RANTES promoters in HKC cells", "format": "cell-based, human", "source_text": "The in situ interaction between NFκB and its target genes in HKC cells was examined by ChIP assay (35) using a commercially available kit (Upstate Biotechnology, Charlottesville, Va.) according to manufacturer's instructions. Briefly, HKC cells were fixed and crosslinked with 4% formaldehyde. After collection of cell pellets and sonication, aliquots of the samples were set aside as input fraction and the rest subjected to immunoprecipitation using an anti-NFκB p65 antibody or preimmune IgG and Protein A agarose used to pull down the immune complexes. After elution, precipitated chromatin as well as the input fraction was heated at 65° C. to reverse crosslinks and the DNA extracted with Qiagen PCR purification kit (Qiagen, Valencia, Calif.). DNA sequences spanning the κB responsive elements in the promoter region were amplified by PCR using specific primers (MCP-1, forward 5′-[…]-3′ (SEQ ID NO: 1), reverse 5′-[…]-3′(SEQ ID NO: 2), Genbank accession number Y18933; RANTES, forward 5′-[…]-3′ (SEQ ID NO: 3), reverse 5′-[…]-3′ (SEQ ID NO: 4), Genbank accession number S64885) for a number of cycles in the exponential phase as estimated in pilot experiments. DNA samples extracted from input fractions were amplified in parallel for normalization. PCR products resolved in ˜1.5 to 2% agarose gels were photographed under ultraviolet light."}}, "note": "“Also recorded” adds a separate entry of the source."}
{"substance": "HGF: Human recombinant HGF (R&D systems); induces inhibitory phosphorylation of GSK3b", "values": [{"measurement": "HGF inhibition of chemokine (RANTES, MCP-1) expression", "setting": "[1]; HKC cells expressing uninhibitable mutant S9A-GSK3b", "value": "abolished HGF inhibition of basal and TNF-α stimulated RANTES expression; also recorded: abolished HGF suppression of E-selectin; also recorded: abolishes HGF's inhibitory effect"}, {"measurement": "HGF inhibition of chemokine (RANTES, MCP-1) expression", "setting": "[1]; HKC cells transfected with pcDNA3 or WT-GSK3b", "value": "did not alter the inhibitory action of HGF on RANTES; also recorded: HGF inhibition of chemokine expression was evident"}, {"measurement": "basal and TNF-α induced chemokine (RANTES, MCP-1) expression", "setting": "[1]; HKC cells, lithium 20 mM, HGF 20 ng/ml, TNF-a 2 ng/ml", "value": "suppresses basal and TNF-α-induced expression of RANTES in a time and dose dependent fashion; also recorded: suppressed MCP-1 and RANTES in a time and dose dependent manner; also recorded: blocked this induction; also recorded: attenuates TNF-α elicited chemokine expression; also recorded: attenuates TNF-a (2 ng/ml) elicited chemokine expression"}, {"measurement": "TNF-a induced co-precipitation of phosphorylated p65 (Ser468) with GSK3b", "setting": "[2]; HKC cells, immunoprecipitation by anti-GSK3b", "value": "abrogated TNFa induced co-precipitation"}, {"measurement": "TNF-a induced GSK3b to p65 interaction", "setting": "[2]; HKC cells, immunoprecipitation by anti-p65", "value": "remarkably overridden by HGF; also recorded: suppressive effect on physical interaction between GSK3b and RelA/p65"}, {"measurement": "co-precipitation of HA-tagged GSK3b with p65 / phosphorylated p65(S468)", "setting": "[2]; WT transfected HKC cells, TNF-a stimulation", "value": "markedly reduced HA co-precipitation with p65 in the WT transfected cells; also recorded: significantly attenuated by HGF in WT transfected cells"}, {"measurement": "co-precipitation of HA-tagged GSK3b with p65 / phosphorylated p65(S468)", "setting": "[3]", "value": "considerably abrogated in HKC cells expressing S9A; also recorded: substantially blunted in cells expressing S9A; also recorded: overridden in cells expression the mutant uninhibitable GSK3b"}, {"measurement": "sequestration of circulating macrophages in the remnant kidney", "setting": "[4]; exogenous HGF", "value": "markedly diminished sequestration of circulating macrophages in the remnant kidney"}, {"measurement": "inflammation and injury in remnant kidneys", "setting": "[4]", "value": "ameliorated; also recorded: reduces inflammatory infiltration, tubular and glomerular injury"}, {"measurement": "inflammation and injury in remnant kidneys", "setting": "[4]; listed as hepatocyte growth factor", "value": "profoundly ameliorating gross renal inflammation"}, {"measurement": "expression of metalloproteinase-9 (MMP-9)", "setting": "[4]; remnant kidney rats", "value": "increasing expression of metalloproteinase-9 (MMP-9)"}, {"measurement": "expression of transforming growth factor-beta (TGF-β)", "setting": "[4]; remnant kidney rats", "value": "did not reduce expression of transforming growth factor-beta (TGF-β)"}, {"measurement": "levels of PAI-1 and TIMP-1", "setting": "[4]; remnant kidney rats", "value": "decreasing levels of plasminogen activator inhibitor-1 (PAI-1) and tissue inhibitor of metalloproteinase-1 (TIMP-1)"}, {"measurement": "renal / tubular expression of proinflammatory molecules (MCP-1, RANTES, E-selectin)", "setting": "[4]; remnant kidney rats", "value": "decreased staining to normal"}, {"measurement": "interstitial injury", "setting": "[4]; remnant kidney rats with established renal injury", "value": "reduced interstitial injury"}, {"measurement": "decrease of interstitial macrophages", "setting": "[4]; remnant kidney rats, continuous infusion for two weeks", "value": "more than 50%"}, {"measurement": "renal / tubular expression of proinflammatory molecules (MCP-1, RANTES, E-selectin)", "setting": "[4]; remnant kidney rats, listed as hepatocyte growth factor", "value": "reduced renal expression of proinflammatory molecules such as RANTES, and E-selectin"}, {"measurement": "TNF-α induced binding of nuclear extract to NF-κB consensus oligonucleotides", "setting": "[5]", "value": "markedly blunted by HGF; also recorded: attenuated by HGF"}, {"measurement": "TNF-a induced recruitment of NFkB p65 to MCP-1 and RANTES promoters", "setting": "[6]", "value": "substantially attenuated by concomitant HGF treatment; also recorded: markedly attenuated"}]}
